Laboratory results: patent US11324826B2, “Multifunctional treatment and diagnostic compositions and methods” (priority 2018, dated 2022)
Values joined by “and” are separate entries in the source; they are usually repeats but may differ in a detail not shown here. Equal values may be shown once.

Key:
[1] = Photooxidation of DHN under visible light irradiation in anaerobic (argon purged) solution, DHN absorption monitored at 301 nm; settings: for Rate, first order rate constant of DHN photooxidation: anaerobic conditions, visible light, acetonitrile:water (6:4); for Photooxidation of DHN (in words): anaerobic
Experimental: First, the treatment composition (DHN+TMPyP+Fe(III)) was compared against commercially available Fe(III)TMPyP and prepared TMPyP+Fe(II), all in presence of DHN, to determine if any or all can produce hydroxyl radical (OH) in anaerobic condition. An aqueous solution of TMPyP and DHN was thoroughly purged with argon followed by irradiation with visible light. DHN's absorption at 301 nm was recorded in 2 minute intervals to monitor in situ production of OH in solution.

[2] = Photooxidation of DHN under visible light irradiation in aerobic solution, DHN absorption monitored at 301 nm; settings: for Rate, first order rate constant of DHN photooxidation: aerobic conditions, visible light, acetonitrile:water (6:4)
Experimental: For a typical experiment, microliter amounts of standard solutions were combined, for illustration not limitation, microliter amounts of a standard solution of Fe(III) solutions (30 μL of 1.0×10^−2 M) and DHN solution (36 μL of 1.0×10^−2 M) added into a cuvette containing 3 mL of solution TMPyP (6.00×10^−6 M). Quartz cuvettes with 1 cm path-length and 3 mL volume were used for all measurements.
For singlet oxygenation of 1,5-dihydroxynaphthalene (DHN) by TMPyP in aqueous solution, a 3 mL solution of DHN (1.2×10^−4 M) and TMPyP (6.0×10^−6 M) was prepared by mixing 36 μL of 1×10^−2 M of DHN standard solution and 18 μL of 1×10^−3 M of TMPyP standard solution with ultrapure water. The solution was prepared at room temperature in an open atmosphere. Photooxygenation of samples was performed in a Rayonet photoreactor and monitored by recording a decrease of UV-vis absorption. For example, photoxygenation of DHN by TMPyP was performed in a Rayonet photoreactor for approximately twenty minutes at 28° C. and the photooxygenation of DHN was monitored by recording a decrease of UV-vis absorption of DHN at 301 nm for 20 minutes in 2 minutes intervals. The effect of metal ions on singlet oxygen generation was studied similarly except with the addition of microliter amounts of M^2+ or M^3+ ions (1×10^−2 M) (positively charged cations with a +2 charge or a +3 charge) into a DHN/TMPyP aqueous solution.

BL21 E. coli [3] = experiment: In vitro BL21 E. coli growth inhibition in aerobic conditions, visible light versus dark; assay type: cell-based; settings: growth recorded after 48 hours
Experimental: Method to assess bacteria inhibition examined in vitro effects with BL21 E. coli. […] Prior art procedure reported in Photochemistry and Photobiology 2010, 86 (4), 890-894 was followed to grow E. coli cells, even though other prior art procedures can be used. BL21 was selected because of availability. […] Luria Broth (LB)-Lennox formulation were allowed to grow in an incubator at 28° C. shaking at 250 rpm until the beginning of their exponential growth phase (A600=0.2). For each experiment, one milliliter of the E. coli solution was centrifuged and washed with sterile water once. After removing washing liquid, the E. coli solutions were then re-suspended in 500.0 μL of sterile water and 200 μL of stock solutions of each of the following were added: (a) DHN (4.2×10^−44.20×10^−4 M), (b) Juglone (4.2×10^−44.20×10^−4 M), (c) Fe(III) (3.5×10^−4 M) and TMPyP (2.1×10^−52.10×10^−5 M), (d) DHN (4.2×10^−44.20×10^−4 M) and TMPyP (2.1×10^−52.10×10^−5 M), (e) Fe(III) (3.5×10^−4M), DHN (4.2×10^−4 M) and TMPyP (2.1×10^−5 M), (f) Fe(III) (3.5×10^−4 M), Juglone (4.2×10^−4 M) and TMPyP (2.1×10^−5 M), and TMPyP (2.1×10^−5).
Controls of each sample were prepared similarly and kept covered to assure that no light was reacted with the TMPyP while other samples were irradiated in a Rayonet photoreactor for 10 minutes. After irradiation, the 700.0 μL samples were briefly vortexed and then 20.0 μL of each sample was spread evenly over individual petri dishes containing LB agar. The plates were inverted, then incubated at 28° C. for 48 hours.
A “light versus dark” comparison study was performed by introducing treatment composition into two equal concentrations of E. coli bacteria solutions, one E. coli solution was kept in dark while other was irradiated with visible light.
As part of the test, a comparison study, including “light versus dark” was performed of treatment composition (FIG. 22E Fe(III) (3.5×10^−4 M), DHN (4.2×10^−4M) and TMPyP (2.1×10^−5 M), versus FIG. 22A DHN (4.2×10^−4 M), FIG. 22B Juglone (4.2×10^−4 M), FIG. 22C Fe(III) (3.5×10^−4 M) and TMPyP (2.1×10^−5 M), FIG. 22D DHN (4.2×10^−4 M) and TMPyP (2.1×10^−5 M), and FIG. 22F Fe(III) (3.5×10^−4 M), Juglone (4.2×10^−4 M) and TMPyP (2.1×10^−5 M).

[4] = in water, prior art literature value; cited from earlier work
[5] = aqueous solution 6.0×10^−6 M, excitation 423 nm, calculated with Equation 3
Experimental: For fluorescence study, three solutions of 3 mL volume were prepared. Study solution 1 (aqueous solution of TMPyP) was prepared by mixing 18 μL of 1.0×10^−3 M TMPyP with ultrapure water. Study solution 2 (aqueous solution of TMPyP and Fe(III) ions) was made by mixing 18 μL of 1.0×10^−3 M TMPyP and 30 μL of 1.0×10^−2 M iron(III) chloride with ultrapure water. Study solution 3 (aqueous solution of TMPyP and DHN) was prepared by mixing 18 μL of 1.0×10^−3 M TMPyP and 36 μL of 1.0×10^−2 M DHN with ultrapure water. Fluorescence emission was measured upon excitation of each solution at 423 nm with an excitation slit width of 10.0 nm and an emission slit width of 12.0 nm. Each experiment was carried out at room temperature and under normal atmospheric conditions.
Crystal violet (1.0×10^−5 M) with a known ΦF=0.020 in water was used as a standard.
Then the fluorescence quantum yield (ΦF) of TMPyP was calculated by using Equation 3 and crystal violet (1.0×10^−5 M) as a standard with ΦF=0.020 in water, fluorescence quantum yield known from the prior art.
[formula] where in Equation 3, A is the absorbance, F represents the area under the emissions curve, and n is the refractive index of the solvent used.

[6] = reported in the prior art; cited from earlier work
[7] = aqueous solution, 655 nm CW laser, calculated with Equation 1
Experimental: Singlet Oxygen Quantum Yield (ΦΔ) of TMPyP was determined using DHN (1.2×10^−4 M) as a singlet oxygen quencher and methylene blue (MB) as a reference standard. A 3 mL solution of TMPyP (6.0×10^−6 M) solution and MB (1.0×10^−5 M) solution both of which contain DHN (1.2×10^−4 M) were prepared. Each solution was irradiated with a 655 nm CW laser and the UV-vis spectrum of each solution was recorded at 1 min intervals for 5 minutes. The quantum yields were calculated with Equation 1 by using ΦΔ(s) of MB (ΦΔ=0.52) reported in the prior art.
[formula] In Equation 1, S is the slope of the plot of the absorbance versus irradiation, and F is the absorption correction factor.
To determine the efficiency of TMPyP for singlet oxygen generation in aqueous solution, ^1O2 quantum yield (ΦΔ) was calculated by using methylene blue as a standard with a known ΦΔ of 0.52. […] Most importantly, the reaction of DHN and ^1O2 can be monitored by observing gradual decrease of the absorption of DHN peaks from 295 nm to 355 nm and so DHN can be used as a ^1O2 probe for ^1O2 quantum yield (ΦΔ) measurement.
Above cited Equation 1 was followed to calculate ^1O2 quantum yield (ΦΔ) for TMPyP, where S is the slope of the plot of the absorbance versus irradiation, and F is the absorption correction factor.

BL21 E. coli [8] = experiment: In vitro BL21 E. coli growth inhibition in hydrogen peroxide rich environment under dark conditions; assay type: cell-based; settings: alone at the experimental concentration (Fe(III) 1.0×10^−4 M or 1.0×10^−3 M; 400 μM H2O2)
Experimental: To determine utility for treatment of bacteria of the claimed treatment compositions in an aqueous H2O2 rich environment (typical tumor environment), E. coli bacteria were mixed with the treatment composition in the presence of H2O2 in dark conditions under normal room temperature and pressure. […] A series of control reactions were carried out to see if alone, any of Fe(III) ions with 1.0×10^−4 M concentration (FIG. 23A) or Fe(III) ions with 1.0×10^−3 M concentration (FIG. 23B) or 400 μM H2O2 (FIG. 23C) can inhibit the growth of E. coli bacteria under identical reaction conditions.

[9] = irradiated with visible light 10 minutes

Structure (SMILES): Oc1cccc(-c2c3nc(c(-c4cccc(O)c4)c4ccc([nH]4)c(-c4cccc(O)c4)c4nc(c(-c5cccc(O)c5)c5ccc2[nH]5)C=C4)C=C3)c1 [m−THP, meso-tetra(m-hydroxyphenyl)porphine]
- Rate, first order rate constant of DHN photooxidation [1]: 4e-05 s⁻¹
- Rate, first order rate constant of DHN photooxidation [2]: 0.0012 s⁻¹

Structure (SMILES): Oc1cccc2c(O)cccc12 [DHN, 1,5-dihydroxynaphthalene]
- Inhibition of E. coli growth (BL21 E. coli [3]; [9]): very marginal inhibition effect
- Inhibition of E. coli growth (BL21 E. coli [3]; kept in dark): almost no inhibition

Structure (SMILES): Oc1ccc(-c2c3nc(c(-c4ccc(O)cc4)c4ccc([nH]4)c(-c4ccc(O)cc4)c4nc(c(-c5ccc(O)cc5)c5ccc2[nH]5)C=C4)C=C3)cc1 [p−THP, meso-tetra(p-hydroxyphenyl)porphine]
- Rate, first order rate constant of DHN photooxidation [1]: 2e-05 s⁻¹
- Rate, first order rate constant of DHN photooxidation [2]: 0.0008 s⁻¹

Structure (SMILES): CN(C)c1ccc(C(=C2C=CC(=[N+](C)C)C=C2)c2ccc(N(C)C)cc2)cc1 [Crystal violet]
- Fluorescence quantum yield (ΦF), prior art [4]: 0.020

Structure (SMILES): O=C1C=CC(=O)c2c(O)cccc21 [Juglone, 5-hydroxy-1,4-naphthalenedione]
- Inhibition of E. coli growth (BL21 E. coli [3]; [9]): complete inhibition
- Inhibition of E. coli growth (BL21 E. coli [3]; kept in dark): complete inhibition

Structure (SMILES): C[n+]1ccc(-c2c3nc(c(-c4cc[n+](C)cc4)c4ccc([nH]4)c(-c4cc[n+](C)cc4)c4nc(c(-c5cc[n+](C)cc5)c5ccc2[nH]5)C=C4)C=C3)cc1.[Cl-].[Cl-].[Cl-].[Cl-] [TMPyP, meso-tetra(N-methyl-4-pyridyl) porphine tetrachloride]
- Fluorescence quantum yield (ΦF) [5]: 0.0139
- Singlet oxygen quantum yield (ΦΔ), prior art [6]: 0.58 and 0.74 and 0.9
- Singlet oxygen quantum yield (ΦΔ) [7]: 0.503
- Photooxidation of DHN (in words) ([1]; absence of Fe(III) ions, FIG. 13): negligible photooxidation
- Photooxidation of DHN (in words) ([1]; presence of Fe(III) ions, FIG. 14): substantial photooxidation
- Fluorescence quantum yield (ΦF), prior art [4]: 0.016
- Maximum rate of photooxidation of DHN by TMPyP (k) ([2]; aerobic, Fe(III) ions about 50 μL of 1.0×10^−2 M): 0.000943 s⁻¹
- Rate constant of DHN photooxidation by TMPyP ([2]; aerobic, metal free solution): 0.000658 s⁻¹
- Rate of photooxidation of DHN by TMPyP (k) ([2]; aerobic, upon addition of 10 μL of 1.0×10^−3 M of Fe(III) ions): 0.00039 s⁻¹
- Rate of photooxidation of DHN by TMPyP (k) ([2]; aerobic, upon addition of 75 μL of 1.0×10^−2 M of Fe(III) ions): 0.000568 s⁻¹

Structure (SMILES): OO [H2O2, hydrogen peroxide]
- Inhibition of growth of E. coli, control alone (BL21 E. coli [8]): No noticeable inhibition

Structure (SMILES): C[n+]1ccc(C2=C3C=CC(=N3)C(c3cc[n+](C)cc3)=c3ccc4[n]3[Fe+][n]3c2ccc3C(c2cc[n+](C)cc2)=C2C=CC(=N2)C=4c2cc[n+](C)cc2)cc1 [Fe(III)TMPyP, Fe(III) bound meso-tetrakis(N-methyl-4-pyridyl) porphyrin]
- Rate constant k of photo-oxidation of DHN ([1]; anaerobic aqueous environment, FIG. 12): 5.5e-05 s⁻¹
- Rate constant of photooxidation of DHN ([2]; aerobic aqueous environment, FIG. 11): 4.67e-05 s⁻¹
- Rate Constant, kobs, of DHN decay kinetics ([2]; aerobic aqueous solution as printed, DHN 1.2×10^−4 M, porphyrin 6.0×10^−6 M, iron 1.0×10^−4 M, 301 nm): 5.5e-05 s⁻¹

Structure (SMILES): CN(C)c1ccc2nc3ccc(=[N+](C)C)cc-3sc2c1 [methylene blue]
- Singlet oxygen quantum yield (ΦΔ), prior art [6]: 0.52

Structure (SMILES): [Cl][Fe]([Cl])[Cl] [Fe(III) ions, iron (III) chloride]
- Inhibition of growth of E. coli, control alone (BL21 E. coli [8]): No noticeable inhibition
